This is an account of results in patent US20230101803A1, “3CLPRO-TARGETING PHILLYRIN, DERIVATIVE THEREOF, AND USE THEREOF AGAINST NOVEL CORONAVIRUS” (DALIAN FUSHENG NATURAL MEDICINE DEVELOPMENT CO., LTD., priority 2020, published 2023).

Where two headings read alike, the source gives them in different places.

For experiment [1], the system named is IFN-γ. The experiment is described as follows: IFN-γ mRNA expression in lung homogenate of infected mice (RT-qPCR). It counts as in vivo, ACE2 transgenic C57BL/6 mice. Conditions: positive control 50 mg/kg, fifth day after infection. The source says:
(§1) Mice: hACE2 mice, 6-7 weeks old, 20-40 g, 120 males in total, laboratory animal supplier: Jiangsu Gempharmatech Co., Ltd.; laboratory animal production license: SOCK (Su) 2018-0008; laboratory animal certificate No.: No.320727201100243581; diets supplier: Jiangsu Medicience Biopharmaceutical Co., Ltd.
(§2) Except for administrating PBS to the mice in the normal group by nasal drip, the mice in other groups were infected with 10^5 PFU of SARS-CoV-2 virus by nasal drip. Two hours after infection, phillyrin was intragastrically administrated to the mice in the administrating groups, once a day, for 5 consecutive days. On the fifth day after infection, the animals were dissected to take lungs for tissue homogenization to test the viral titer. Total RNA was extracted from the supernatant of lung tissue homogenate by Trizol method, and the mRNA expression of related inflammatory factors was detected by RT-qPCR.

Experiment [2] relates to SARS-CoV-2 virus. The experiment is described as follows: Death protection of hACE2 mice infected with novel coronavirus. The class given is in vivo, hACE2 transgenic C57BL/6 mice. Conditions: positive control 50 mg/kg.
Method: Except for administrating PBS to the mice in the normal group by nasal drip, the mice in other groups were infected with 10^5 PFU of SARS-CoV-2 virus by nasal drip. […] Changes in body weight were recorded every day after infection, and 5-day mortality was calculated.
For experiment [3], the system named is IFN-α. The experiment is described as follows: IFN-α mRNA expression in lung homogenate of infected mice (RT-qPCR). It counts as in vivo, ACE2 transgenic C57BL/6 mice. Conditions: positive control 50 mg/kg, fifth day after infection.
Source text: as §1, §2
On the technique in general: In qPCR the cycle at which signal appears reflects the starting amount.

In experiment [4] the test system is IL-1β. Kind of experiment: IL-1β mRNA expression in lung homogenate of infected mice (RT-qPCR). Particulars: positive control 50 mg/kg, fifth day after infection. The class given is in vivo, ACE2 transgenic C57BL/6 mice.
Source text: as §1, §2

The test system of experiment [5] is SARS-CoV-2 virus. The experiment is described as follows: Viral titer in lung tissues of novel coronavirus-infected mice. Conditions: positive control 50 mg/kg, fifth day after infection. It counts as in vivo, ACE2 transgenic C57BL/6 mice.
Source text: as §1, §2

Experiment [6] has as its system MCP-1. Kind of experiment: MCP-1 mRNA expression in lung homogenate of infected mice (RT-qPCR). The class given is in vivo, ACE2 transgenic C57BL/6 mice. Particulars: positive control 50 mg/kg, fifth day after infection.
Source text: as §1, §2

Experiment [7] concerns HCoV-229E. Kind of experiment: CPE inhibition of HCoV-229E in vitro (process of first embodiment). It counts as cell-based.
The target of experiment [8] is SARS-CoV-2 3CL pro protein (Severe acute respiratory syndrome coronavirus 2, UniProt P0DTD1). The class given is binding. Particulars: 3CL pro protein peak at 278 nm; protein 10^−5 M, compound 10^−4 M.

As to `CCC(CC)COC(=O)[C@H](C)N[P@](=O)(OC[C@H]1O[C@@](C#N)(c2ccc3c(N)ncnn23)[C@H](O)[C@@H]1O)Oc1ccccc1` [Remdesivir], in experiment [1], the “IFN-γ mRNA expression in lung homogenate” value is given as 173.79 ± 84.84. Moreover, in experiment [2], the “Mean survival days” value is given as 4.86 ± 0.38 days and the “Survival rate (%)” value stood at 87.50%. Moreover, the “IFN-α mRNA expression in lung homogenate” value in experiment [3] turned out to be 69.99 ± 53.20. Besides, in experiment [4], the “IL-1β mRNA expression in lung homogenate” value was 7.41 ± 5.86. In addition, in experiment [5], the “Viral titer in lung (Log10)” value turned out to be 1.68 ± 0.45 Log10. The “MCP-1 mRNA expression in lung homogenate” value in experiment [6] came to 7.31 ± 5.14.
Turning to `COc1cc([C@H]2OC[C@H]3[C@@H]2CO[C@H]3c2ccc(OC)c(OC)c2)ccc1O` [phillygenin], in experiment [7] (HCoV-229E, compared with the composition), the “inhibitory effect (compared in the same study)” value is reported as “worse”.
With phillyrin [KD-1], the “inhibitory effect (compared in the same study)” value in experiment [7] is on record as “worse”. For the same molecule, the “change of UV-Vis absorbance of 3CL pro protein after compound was added” value in experiment [8] is “the absorbance was increased and the peak shifted”.
